Results published in article PMC6530361, “Anti-tumor Efficacy Assessment of the Sigma Receptor Pan Modulator RC-106. A Promising Therapeutic Tool for Pancreatic Cancer” (Frontiers in Pharmacology, 2019).
Read-outs that look alike come from different tables or passages of the source.

How the values were obtained:
Assay type in all cases: cell-based
Panc-1 = experiment: MTS assay (cell viability, 2D); conditions: Homo sapiens
Description: (§1) Pancreatic adenocarcinoma Panc-1, Capan-1, and Capan-2, cell lines were purchased by the ATCC. All cell lines were grown in culture medium composed of DMEM/Ham’s F12 (1:1; Euroclone) supplemented with fetal calf serum (10%; Euroclone), glutamine (2 mM; Euroclone), and insulin (10 μg/mL; Sigma-Aldrich, St. Louis, MO, United States). All experiments were performed on cells in the exponential growth phase and checked periodically for mycoplasma contamination by MycoAlert^TM Mycoplasma Detection Kit (Lonza, Basel, Switzerland).
(§2) Cytotoxicity was assayed using CellTiter 96® AQueous One Solution Cell Proliferation Assay (Promega, Milan, Italy). Cells were seeded onto a 96-well plate at a density of 3 × 10^3 cells per well. Cell lines were exposed to increasing concentrations of the drug, ranging from 0.1 to 100 μM. The effect of the drug was evaluated after 24, 48, and 72 h of continued exposure. Two independent experiments were performed in octuplicate. The OD of treated and untreated cells was determined at a wavelength of 490 nm using a […].
(§3) Dose response curves were created by Excel software. IC50 values were determined graphically from the plot.

Capan-1 = experiment: MTS assay (cell viability, 2D); conditions: Homo sapiens
Description: as §1, §2, §3

Capan-2 [1] = experiment: MTS assay (cell viability, 2D); conditions: Homo sapiens
Description: as §1, §2, §3

Panc-1 spheroids = experiment: Analysis of morphological parameters of 3D tumor spheroids; conditions: 50 μM, 48 h
Description: Spheroids were obtained as previously described ([Zanoni et al., 2016]). Briefly, a rotatory cell culture system RCCS (Synthecon Inc., Houston, TX, United States) was used. The rotary systems were placed inside a humidified 37°C, 5% CO2 incubator and all procedures were performed in sterile conditions. Single cell suspensions of about 1 × 10^6 cells/ml of Panc-1 were placed in the 50 mL rotating chamber at an initial speed of 12 rpm. Speed was increased as cells formed aggregates to avoid sedimentation. The culture medium was changed every 4 days and tumor spheroids with an equivalent diameter ranging from about 500–1300 μm were obtained in around 15 days. After formation, spheroids were transferred into a 96-well low-attachment culture plates (Corning Inc., Corning, NY, United States; one spheroid/well), containing 100 μL of fresh culture medium per well.
The analysis of morphological parameters were performed as previously described ([Piccinini et al., 2017]). Briefly, an inverted Olympus IX51 microscope (Olympus Corporation, Tokyo, Japan), equipped with a Nikon Digital Sight DS-Vi1 camera (CCD vision sensor, square pixels of 4.4 μm side length, 1600 × 1200 pixel resolution, 8-bit gray level; Nikon Instruments, Spa. Florence, Italy) was used to take images and for morphological analyses. […]

Capan-2 [2] = experiment: Real-Time qRT-PCR of ER stress/UPR marker genes; conditions: Capan-2, RC-106 50 μM, higher than untreated cells
Description: Total cellular RNA was extracted using TRIzol reagent (Life technologies) in accordance with manufacturer’s instruction and quantified using the Nanodrop MD-1000 spectrophotometer system. Reverse transcription reactions were performed in 20 μL of nuclease free water containing 400 ng of total RNA using iScript cDNA Synthesis kit (Bio-Rad Laboratories, Hercules, CA). Real-Time PCR was run using 7500 Fast Real-Time PCR system (Applied Biosystems) and TaqMan assays to detect the expression of SIGMAR1, TMEM97, GRP78/BiP, ATF4, and CHOP genes.
Reactions were carried out in triplicate at a final volume of 20 μL containing 40 ng of cDNA template, TaqMan universal PCR Master Mix (2X), and selected TaqMan assays (20X). Samples were maintained at 50°C for 2 min, then at 95°C for 10 min followed by 40 amplification cycles at 95°C for 15 s, and at 60°C for 30 s.
The amount of mRNA was normalized to the endogenous genes GAPDH and HPRT-1.

What does the source list for `C/C(=C\CN1CCC(Cc2ccccc2)CC1)c1ccc2ccccc2c1` [RC-106, (E)-4-benzyl-1-(3-(naphthalen-2-yl)but-2-en-1-yl)piperidine]?
IC50 (Panc-1; PANC-1, 24 h exposure, read-out: IC50 values 24h): 55.3 ± 0.7 µM; IC50 (Panc-1; PANC-1, 48 h exposure, read-out: IC50 values 48h): 51.7 ± 1.38 µM; IC50 (Panc-1; PANC-1, 72 h exposure, read-out: IC50 values 72h): 52.1 ± 0.47 µM; IC50 (Capan-1; CAPAN-1, 24 h exposure, read-out: IC50 values 24h): 56.8 ± 0.98 µM; IC50 (Capan-1; CAPAN-1, 48 h exposure, read-out: IC50 values 48h): 50.3 ± 3.04 µM; IC50 (Capan-1; CAPAN-1, 72 h exposure, read-out: IC50 values 72h): 32.8 ± 3.43 µM; IC50 (Capan-2 [1]; CAPAN-2, 24 h exposure, read-out: IC50 values 24h): 52.6 ± 0.07 µM; IC50 (Capan-2 [1]; CAPAN-2, 48 h exposure, read-out: IC50 values 48h): 54.2 ± 2.18 µM; IC50 (Capan-2 [1]; CAPAN-2, 72 h exposure, read-out: IC50 values 72h): 53.3 ± 1.62 µM; 3D morphological parameters of spheroids (Panc-1 spheroids): complete disaggregation of spheroid organization and cytoarchitecture; increase in expression of CHOP mRNA (Capan-2 [2]): 70 fold
